According to PMC5025651, “Reprofiled anthelmintics abate hypervirulent stationary-phase Clostridium difficile” (Scientific Reports, 2016):
≈ marks a conversion by molar mass, not a printed value. Like-named read-outs stand apart in the source and are kept apart here.

How the values were obtained:
[1] = system: C. difficile isolate 20110742 (ribotype 002); experiment: MIC by broth microdilution; type: cell-based, Clostridium difficile; settings: Clostridioides difficile; isolate 20110742, ribotype 002; duplicate; read-out: MIC
[2] = system: C. difficile isolate 20111163 (ribotype 024); experiment: MIC by broth microdilution; type: cell-based, Clostridium difficile; settings: Clostridioides difficile; isolate 20111163, ribotype 024; duplicate; read-out: MIC
[3] = system: C. difficile isolate 20100584 (ribotype 014); experiment: MIC by broth microdilution; type: cell-based, Clostridium difficile; settings: Clostridioides difficile; isolate 20100584, ribotype 014; duplicate; read-out: MIC
[4] = system: B. fragilis Strain CL05T00C42; experiment: MIC by broth microdilution; type: cell-based; settings: Bacteroides fragilis; B. fragilis CL05T00C42; supplemented Brucella broth, anaerobic; duplicate; read-out: MIC
[5] = Hemolysis assay; type: cell-based; settings: sheep, pH 7.4
Procedure: Sheep red blood cells (Innovative Research, Novi, MI, USA) were washed three times with PBS pH 7.4. A 3% cell suspension in PBS (100 μL) was added to test compounds in PBS (100 μL, to a final concentration of 32 μg/mL), and then incubated at 37 °C for 1 h. The plate was centrifuged at 500 × g for 10 min, and supernatants (100 μL) were transferred to a clean 96-well plate. Hemolysis was determined by measuring absorbance at 540 nm, with 1% Triton X-100 as the positive control and 0.5% DMSO in PBS as the negative control. Hemolysis assays were performed in triplicate.

[6] = system: C. difficile isolate 20110961 (ribotype A12); experiment: MIC by broth microdilution; type: cell-based, Clostridium difficile; settings: Clostridioides difficile; isolate 20110961, ribotype A12; duplicate; read-out: MIC
[7] = system: B. breve Strain EX336960VC19; experiment: MIC by broth microdilution; type: cell-based; settings: Bifidobacterium breve; B. breve EX336960VC19; LSM broth, anaerobic; duplicate; read-out: MIC
[8] = system: C. difficile strain 4118; experiment: Minimum bactericidal concentration (MBC), logarithmic- and stationary-phase cells; type: cell-based, Clostridium difficile; settings: Clostridioides difficile, 4118, 20–24 h, n = 2
Procedure: The procedure for MBC determination was adapted from that of Alam et al.[44]. Briefly, a single overnight colony of C. difficile strain 4118 (streaked onto blood agar plate) was suspended in BHIS and grown to OD600 ~ 0.4–0.5 (logarithmic phase) or for 24 h (stationary phase). In 96-well microtiter plates, cultures were added to two-fold serial dilutions of test compounds in BHIS and incubated for 20–24 h at 37 °C in an anaerobic chamber. […] MBC measurements were performed in duplicate.

[9] = system: C. difficile isolate 20110566 (ribotype 020); experiment: MIC by broth microdilution; type: cell-based, Clostridium difficile; settings: Clostridioides difficile; isolate 20110566, ribotype 020; duplicate; read-out: MIC
[10] = system: S. epidermidis 1457; experiment: MIC by broth microdilution; type: cell-based; settings: Staphylococcus epidermidis; S. epidermidis 1457; CAMHB, aerobic; duplicate; read-out: MIC
[11] = system: B. subtilis ATCC 6051; experiment: MIC by broth microdilution; type: cell-based; settings: Bacillus subtilis, ATCC6051; B. subtilis ATCC 6051; CAMHB, aerobic; duplicate; read-out: MIC
[12] = system: C. difficile strain 4118 (CD4118, ATCC BAA-1870, ribotype 027); experiment: MIC by broth microdilution; type: cell-based, Clostridium difficile; settings: Clostridioides difficile, ATCCBAA1870; BHIS broth, anaerobic, 20–24 h, n = 2; read-out: MIC C. difficile 4118
[13] = system: P. nigrescens ATCC 33563; experiment: MIC by broth microdilution; type: cell-based; settings: Prevotella nigrescens, ATCC33563; P. nigrescens ATCC 33563; supplemented Brucella broth, anaerobic; duplicate; read-out: MIC
[14] = system: P. distasonis ATCC 8503; experiment: MIC by broth microdilution; type: cell-based; settings: Parabacteroides distasonis, ATCC8503; P. distasonis ATCC 8503; supplemented Brucella broth, anaerobic; duplicate; read-out: MIC
[15] = system: C. difficile isolate 20110973 (ribotype 106); experiment: MIC by broth microdilution; type: cell-based, Clostridium difficile; settings: Clostridioides difficile; isolate 20110973, ribotype 106; duplicate; read-out: MIC
[16] = system: C. clostridioforme ATCC 25537; experiment: MIC by broth microdilution; type: cell-based, Clostridium clostridioforme; settings: Clostridium, ATCC25537; C. clostridioforme ATCC 25537; BHIS, anaerobic; duplicate; read-out: MIC
[17] = system: C. difficile isolate 20110740 (ribotype 018); experiment: MIC by broth microdilution; type: cell-based, Clostridium difficile; settings: Clostridioides difficile; isolate 20110740, ribotype 018; duplicate; read-out: MIC
[18] = system: C. difficile isolate 20110986 (ribotype 078); experiment: MIC by broth microdilution; type: cell-based, Clostridium difficile; settings: Clostridioides difficile; isolate 20110986, ribotype 078; duplicate; read-out: MIC
[19] = system: A. baumannii M2; experiment: MIC by broth microdilution; type: cell-based; settings: Acinetobacter baumannii; A. baumannii M2; CAMHB, aerobic; duplicate; read-out: MIC
[20] = system: B. thetaiotaomicron ATCC 29148; experiment: microbe, parasite or virus in culture; type: cell-based; settings: Bacteroides thetaiotaomicron, ATCC29148
[21] = system: C. difficile isolate 20120016 (ribotype 019); experiment: MIC by broth microdilution; type: cell-based, Clostridium difficile; settings: Clostridioides difficile; isolate 20120016, ribotype 019; duplicate; read-out: MIC
[22] = system: C. difficile isolate 20121190 (ribotype 126); experiment: MIC by broth microdilution; type: cell-based, Clostridium difficile; settings: Clostridioides difficile; isolate 20121190, ribotype 126; duplicate; read-out: MIC
[23] = system: C. difficile isolate 20110960 (ribotype 017); experiment: MIC by broth microdilution; type: cell-based, Clostridium difficile; settings: Clostridioides difficile; isolate 20110960, ribotype 017; duplicate; read-out: MIC
[24] = system: C. difficile strain 4118; experiment: Time-kill kinetics against stationary-phase cultures; type: cell-based, Clostridium difficile; settings: stationary-phase CD4118; for log decrease in the number of CFUs: 4 × MIC, 24 h; for time to eradicate >99.9% of viable cells: 16× MIC (rafoxanide 2 μg/mL, closantel 4 μg/mL, compound 8 1 μg/mL)
Procedure: At t = 0, 3, 6 and 24 h, sample aliquots were withdrawn from the treated cultures and bacterial viability was scored by plating serial dilutions on BHIS agar plates. The agar plates were incubated in the anaerobic chamber for 20–24 h at 37 °C. Kinetic experiments were performed at least twice.

[25] = system: L. johnsonii Strain 135-1-CHN; experiment: MIC by broth microdilution; type: cell-based; settings: Lactobacillus johnsonii, STRAIN1351CHN; L. johnsonii 135-1-CHN; CAMHB with 5% laked horse blood, ~48 h; duplicate; read-out: MIC
[26] = system: C. difficile isolate 20100422 (ribotype 054); experiment: MIC by broth microdilution; type: cell-based, Clostridium difficile; settings: Clostridioides difficile; isolate 20100422, ribotype 054; duplicate; read-out: MIC
[27] = system: L. reuteri Strain CF48-3A; experiment: MIC by broth microdilution; type: cell-based, Lactobacillus reuteri; settings: Limosilactobacillus reuteri; L. reuteri CF48-3A; CAMHB with 5% laked horse blood, ~48 h; duplicate; read-out: MIC
[28] = system: 16 C. difficile isolates; experiment: MIC by broth microdilution, summary over 16 C. difficile isolates; type: cell-based, Clostridium difficile; settings: for MIC50: MIC at which 50% of the 16 isolates are inhibited; for MIC90: MIC at which 90% of the 16 isolates are inhibited
[29] = system: S. aureus RN4220; experiment: MIC by broth microdilution; type: cell-based; settings: Staphylococcus aureus, CAMHB, aerobic, duplicate
[30] = system: C. difficile isolate 20110869 (ribotype 001_072); experiment: MIC by broth microdilution; type: cell-based, Clostridium difficile; settings: Clostridioides difficile; isolate 20110869, ribotype 001_072; duplicate; read-out: MIC
[31] = system: B. longum subsp. longum Strain 44B; experiment: MIC by broth microdilution; type: cell-based; settings: Bifidobacterium longum; B. longum subsp. longum 44B; LSM broth, anaerobic; duplicate; read-out: MIC
[32] = minimum bactericidal concentration (≥3-log reduction) for logarithmic-phase cells, read-out: MBClog
[33] = minimum bactericidal concentration (≥3-log reduction) for stationary-phase cells, read-out: MBCstat

With `Cc1cc(C(C#N)c2ccc(Cl)cc2)c(Cl)cc1NC(=O)c1cc(I)cc(I)c1O` (stereo not shown) [Closantel] the MIC [1] was 0.13 to 0.25 µg/mL (≈ 0.196 to 0.377 µM), the MIC [2] was 0.13 to 0.25 µg/mL (≈ 0.196 to 0.377 µM) and the MIC [3] was 0.25 µg/mL (≈ 0.377 µM). The MIC [4] was over 32 µg/mL, the hemolysis at 1 h, 32 µg/mL [5] was under 1% and the MIC [6] was 0.25 µg/mL (≈ 0.377 µM). It also gave an MIC [7] of over 32 µg/mL, an MBC [8, 32] of 2 µg/mL (≈ 3.02 µM) and an MBC [8, 33] of 4 µg/mL (≈ 6.03 µM). The MIC [9] was 0.25 µg/mL (≈ 0.377 µM), the MIC [10] was at most 0.03 µg/mL and the MIC [11] was at most 0.03 µg/mL. It also gave an MIC [12] of 0.25 µg/mL (≈ 0.377 µM), an MIC [13] of 8 µg/mL (≈ 12.1 µM) and an MIC [14] of 16 µg/mL (≈ 24.1 µM). It also gave an MIC [15] of 0.25 µg/mL (≈ 0.377 µM), an MIC [16] of 4 µg/mL (≈ 6.03 µM) and an MIC [17] of 0.25 µg/mL (≈ 0.377 µM). The MIC [18] was 0.25 µg/mL (≈ 0.377 µM), the MIC [19] was over 32 µg/mL and the MIC [20] was over 32 µg/mL. It also gave an MIC [21] of 0.25 µg/mL (≈ 0.377 µM), an MIC [22] of 0.25 µg/mL (≈ 0.377 µM) and an MIC [23] of 0.13 µg/mL (≈ 0.196 µM). For the same compound, the “log decrease in the number of CFUs” value [24] was 2.2 log, the “time to eradicate >99.9% of viable cells” value [24] was 24 h and the MIC [25] was 32 µg/mL (≈ 48.3 µM). It also gave an MIC [26] of 0.25 µg/mL (≈ 0.377 µM), an MIC [27] of 32 µg/mL (≈ 48.3 µM) and an MIC50 ([28]; Clostridioides difficile, n = 2, read-out: MIC50) of 0.25 µg/mL (≈ 0.377 µM). For the same compound, the MIC90 ([28]; Clostridioides difficile, n = 2, read-out: MIC90) was 0.25 µg/mL (≈ 0.377 µM), the “MIC Range” value ([28]; range over 16 C. difficile isolates, n = 2) was 0.13 to 1 µg/mL and the MIC [29] was 0.25 µg/mL (≈ 0.377 µM). The MIC [30] was 1 µg/mL (≈ 1.51 µM) and the MIC [31] was 16 µg/mL (≈ 24.1 µM).

`O=C(Nc1ccc(Oc2ccc(Cl)cc2)cc1)c1cc(Cl)cc(Cl)c1O` [Compound 8] showed an MIC [1] of 0.06 µg/mL (≈ 0.147 µM), an MIC [2] of 0.13 µg/mL (≈ 0.318 µM) and an MIC [3] of 0.06 µg/mL (≈ 0.147 µM). The MIC [4] was 16 µg/mL (≈ 39.2 µM), the hemolysis at 1 h, 32 µg/mL ([5]; sheep red blood cells (3% suspension), 32 µg/mL, 1 h, 37 °C, 1% Triton X-100 positive control, triplicate, read-out: Hemolysis (%)) was under 1% and the MIC [6] was 0.13 µg/mL (≈ 0.318 µM). For the same compound, the MIC [7] was 8 µg/mL (≈ 19.6 µM), the MBC [8, 32] was 0.25 µg/mL (≈ 0.612 µM) and the MBC [8, 33] was 1 µg/mL (≈ 2.45 µM). The MIC [9] was 0.06 µg/mL (≈ 0.147 µM), the MIC [10] was at most 0.03 µg/mL and the MIC [11] was at most 0.03 µg/mL. It also gave an MIC [12] of 0.06 µg/mL (≈ 0.147 µM), an MIC [13] of 4 µg/mL (≈ 9.79 µM) and an MIC [14] of 4 µg/mL (≈ 9.79 µM). For the same compound, the MIC [15] was 0.03 µg/mL (≈ 0.0734 µM), the MIC [16] was 4 µg/mL (≈ 9.79 µM) and the MIC [17] was 0.06 µg/mL (≈ 0.147 µM). The MIC [18] was 0.06 µg/mL (≈ 0.147 µM), the MIC [19] was 32 µg/mL (≈ 78.3 µM) and the MIC ([20]; B. thetaiotaomicron ATCC 29148, supplemented Brucella broth, anaerobic, duplicate, read-out: MIC) was over 32 µg/mL. The MIC [21] was 0.13 µg/mL (≈ 0.318 µM), the MIC [22] was 0.25 µg/mL (≈ 0.612 µM) and the MIC [23] was 0.06 µg/mL (≈ 0.147 µM). The “log decrease in the number of CFUs” value [24] was 2.4 log, the “time to eradicate >99.9% of viable cells” value [24] was 24 h and the MIC [25] was 32 µg/mL (≈ 78.3 µM). It also gave an MIC [26] of 0.25 µg/mL (≈ 0.612 µM), an MIC [27] of 16 µg/mL (≈ 39.2 µM) and an MIC ([28]; Clostridioides difficile, 14 isolates other than CD630 and CD4118, read-out: MIC values ranging, 14 other C. difficile isolates) of 0.03 to 0.25 µg/mL (≈ 0.0734 to 0.612 µM). It also gave an MIC50 ([28]; n = 2) of 0.06 µg/mL (≈ 0.147 µM), an MIC90 ([28]; n = 2) of 0.25 µg/mL (≈ 0.612 µM) and an MIC [29] of 0.13 µg/mL (≈ 0.318 µM). The MIC [30] was 0.06 to 0.13 µg/mL (≈ 0.147 to 0.318 µM) and the MIC [31] was 8 µg/mL (≈ 19.6 µM).
